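Abbreviation: GI50, concentration required for 50% inhibition of growth. TGI denotes the concentration required for complete inhibition of growth.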
How the values were obtained:
Assay in all cases: NCI anticancer screen, dose series, 384-well format
SNB-19 CNS = test system: SNB-19 CNS
COLO 205 colon = test system: COLO 205 colon
CCRF-CEM leukemia = test system: CCRF-CEM leukemia
OVCAR-4 ovarian = test system: OVCAR-4 ovarian
T-47D breast = test system: T-47D breast
SF-295 CNS = test system: SF-295 CNS
BT-549 breast = test system: BT-549 breast
NCI-H23 lung = test system: NCI-H23 lung
NCI-H226 lung = test system: NCI-H226 lung
MOLT-4 leukemia = test system: MOLT-4 leukemia
KM12 colon = test system: KM12 colon
CAKI-1 renal = test system: CAKI-1 renal
HOP-62 NSCLC = test system: HOP-62 NSCLC
NCI-H522 lung = test system: NCI-H522 lung
SK-MEL-2 melanoma = test system: SK-MEL-2 melanoma
NCI-H460 NSCLC = test system: NCI-H460 NSCLC
IGROV1 ovarian = test system: IGROV1 ovarian
MALME-3M melanoma = test system: MALME-3M melanoma
OVCAR-3 ovarian = test system: OVCAR-3 ovarian
UACC-257 melanoma = test system: UACC-257 melanoma
SF-539 CNS = test system: SF-539 CNS
NCI/ADR-RES ovarian = test system: NCI/ADR-RES ovarian
M14 melanoma = test system: M14 melanoma
MCF7 breast = test system: MCF7 breast
UO-31 renal = test system: UO-31 renal
SW-620 colon = test system: SW-620 colon
ACHN renal = test system: ACHN renal
LOX IMVI melanoma = test system: LOX IMVI melanoma
PC-3 prostate = test system: PC-3 prostate
HCC-2998 colon = test system: HCC-2998 colon
U251 glioblastoma = test system: U251 glioblastoma
HCT-116 colon = test system: HCT-116 colon
SR leukemia = test system: SR leukemia
HCT-15 colon = test system: HCT-15 colon
HS 578T breast = test system: HS 578T breast
NCI-H322M lung = test system: NCI-H322M lung
MDA-MB-231 breast = test system: MDA-MB-231 breast
RPMI-8226 leukemia = test system: RPMI-8226 leukemia
K-562 leukemia = test system: K-562 leukemia
RXF 393 renal = test system: RXF 393 renal
MDA-MB-435 melanoma = test system: MDA-MB-435 melanoma
A549 NSCLC = test system: A549 NSCLC
SF-268 CNS = test system: SF-268 CNS
SK-OV-3 ovarian = test system: SK-OV-3 ovarian
MDA-MB-468 breast = test system: MDA-MB-468 breast
A498 renal = test system: A498 renal
SK-MEL-5 melanoma = test system: SK-MEL-5 melanoma

COc1cc2nccc(Oc3ccc(NC(=O)C4(C(=O)Nc5ccc(F)cc5)CC4)cc3)c2cc1OC
GI50 (SNB-19 CNS): 7.3 µM | TGI (SNB-19 CNS): > 55.2 µM | GI50 (COLO 205 colon): 2140 nM | TGI (COLO 205 colon): 4.97 µM | GI50 (CCRF-CEM leukemia): 1960 nM | TGI (CCRF-CEM leukemia): 3.52 µM | GI50 (OVCAR-4 ovarian): 4.01 µM | TGI (OVCAR-4 ovarian): 13.1 µM | GI50 (T-47D breast): 2780 nM | TGI (T-47D breast): 10 µM | GI50 (SF-295 CNS): 1080 nM | TGI (SF-295 CNS): 6.02 µM | GI50 (BT-549 breast): 4.15 µM | TGI (BT-549 breast): 12.9 µM | GI50 (NCI-H23 lung): 1340 nM | TGI (NCI-H23 lung): 6.54 µM | GI50 (NCI-H226 lung): 1410 nM | TGI (NCI-H226 lung): 4.74 µM | GI50 (MOLT-4 leukemia): 1550 nM | TGI (MOLT-4 leukemia): 3.62 µM | GI50 (KM12 colon): 61.4 nM | TGI (KM12 colon): 14.3 µM | GI50 (CAKI-1 renal): 2620 nM | TGI (CAKI-1 renal): 9.96 µM | GI50 (HOP-62 NSCLC): 5.16 µM | TGI (HOP-62 NSCLC): 24.2 µM | GI50 (NCI-H522 lung): 2790 nM | TGI (NCI-H522 lung): 7.77 µM | GI50 (SK-MEL-2 melanoma): 3.07 µM | TGI (SK-MEL-2 melanoma): 7.42 µM | GI50 (NCI-H460 NSCLC): 3.14 µM | TGI (NCI-H460 NSCLC): 9.27 µM | GI50 (IGROV1 ovarian): 1640 nM | TGI (IGROV1 ovarian): 3.8 µM | GI50 (MALME-3M melanoma): 2000 nM | TGI (MALME-3M melanoma): 5.44 µM | GI50 (OVCAR-3 ovarian): 3.36 µM | TGI (OVCAR-3 ovarian): 10.2 µM | GI50 (UACC-257 melanoma): 4.62 µM | TGI (UACC-257 melanoma): 12.6 µM | GI50 (SF-539 CNS): 1320 nM | TGI (SF-539 CNS): 4.74 µM | GI50 (NCI/ADR-RES ovarian): 2520 nM | TGI (NCI/ADR-RES ovarian): 9.33 µM | GI50 (M14 melanoma): 2670 nM | TGI (M14 melanoma): 7.03 µM | GI50 (MCF7 breast): 3.55 µM | TGI (MCF7 breast): 11.1 µM | GI50 (UO-31 renal): 3.16 µM | TGI (UO-31 renal): 9.08 µM | GI50 (SW-620 colon): 2130 nM | TGI (SW-620 colon): 5.57 µM | GI50 (ACHN renal): 3.54 µM | TGI (ACHN renal): 16 µM | GI50 (LOX IMVI melanoma): 3.24 µM | TGI (LOX IMVI melanoma): 9.47 µM | GI50 (PC-3 prostate): 3.8 µM | TGI (PC-3 prostate): 15.4 µM | GI50 (HCC-2998 colon): 5.73 µM | TGI (HCC-2998 colon): 14 µM | GI50 (U251 glioblastoma): 5.32 µM | TGI (U251 glioblastoma): 17.9 µM | GI50 (HCT-116 colon): 3.78 µM | TGI (HCT-116 colon): 14.2 µM | GI50 (SR leukemia): 2950 nM | TGI (SR leukemia): 4.49 µM | GI50 (HCT-15 colon): 3.22 µM | TGI (HCT-15 colon): 10.4 µM | GI50 (HS 578T breast): 1960 nM | TGI (HS 578T breast): 6.4 µM | GI50 (NCI-H322M lung): 3.36 µM | TGI (NCI-H322M lung): 16 µM | GI50 (MDA-MB-231 breast): 2480 nM | TGI (MDA-MB-231 breast): 6.76 µM | GI50 (RPMI-8226 leukemia): 3.09 µM | TGI (RPMI-8226 leukemia): 7.73 µM | GI50 (K-562 leukemia): 295 nM | TGI (K-562 leukemia): 1070 nM | GI50 (RXF 393 renal): 2730 nM | TGI (RXF 393 renal): 5.49 µM | GI50 (MDA-MB-435 melanoma): 3.94 µM | TGI (MDA-MB-435 melanoma): 12 µM | GI50 (A549 NSCLC): 2460 nM | TGI (A549 NSCLC): 6.13 µM | GI50 (SF-268 CNS): 3.68 µM | TGI (SF-268 CNS): 12.4 µM | GI50 (SK-OV-3 ovarian): 4.97 µM | TGI (SK-OV-3 ovarian): 15.8 µM | GI50 (MDA-MB-468 breast): 3.67 µM | TGI (MDA-MB-468 breast): 9.4 µM | GI50 (A498 renal): 3.29 µM | TGI (A498 renal): 12.2 µM | GI50 (SK-MEL-5 melanoma): 2190 nM | TGI (SK-MEL-5 melanoma): 6.58 µM
